Test results as given in US12486290B2, “Isoindolinone and indazole compounds for the degradation of EGFR” (C4 THERAPEUTICS, INC., priority 2019, dated 2025).

Assays:
[1] = target: T1, EGFR T790M/L858R (NCI-H1975 cells) (Homo sapiens, UniProt P00533, L858R/T790M); assay: EGFR (L858R) degradation analysis, Total EGFR (L858R) HTRF, NCI-H1975 cells; assay type: cell-based; conditions: 6 hours
T1 construct: NCI-H1975 (harboring EGFR heterozygous T790M/L858R mutations); host or cells: NCI-H1975
Text: (§1) NCI-H1975 (harboring EGFR heterozygous T790M/L858R mutations) and NCI-H3255 (harboring EGFR heterozygous L858R mutation) were purchased from ATCC and NCI, respectively. NCI-H1975+CS (harboring EGFR heterozygous T/790M/L858R/C797S mutations) was generated using CRISPR technology to introduce the additional C797S mutation by Horizon Discovery. RPMI 1640 no-phenol red medium and fetal bovine serum (FBS) were purchased from Gibco (Grand Island, NY, USA). Cell culture flasks and 384-well microplates were acquired from VWR (Radnor, PA, USA). Total EGFR (L858R) HTRF assay kits were purchased from Cisbio (Bedford, MA, USA).
(§2) Degradation of EGFR protein containing L858R mutation was determined based on quantification of FRET signal using Total EGFR (L858R) HTRF assay kit. Test compounds were added to the 384-well plate from a top concentration of 10 μM with 11 points, half log titration in duplicates. NCI-H1975, NCI-H1975+CS or NCI-H3255 cells were added into 384-well plates at a cell density of 10000, 10000 or 1000 cells per well, respectively. The plates were kept at 37° C. with 5% CO2 for 6 hours. Cells treated in the absence of the test compound were the negative control. Positive control was set by wells containing all reagents but no cells. FRET signal was acquired on EnVision™ Multilabel Reader (PerkinElmer, Santa Clara, CA, USA).

[2] = target: T2, EGFR L858R (NCI-H3255 cells) (Homo sapiens, UniProt P00533, L858R); assay: EGFR (L858R) degradation analysis, Total EGFR (L858R) HTRF, NCI-H3255 cells; assay type: cell-based; conditions: 6 hours
T2 construct: NCI-H3255 (harboring EGFR heterozygous L858R mutation); host or cells: NCI-H3255
T2 sequence (P00533 25-1210 L858R): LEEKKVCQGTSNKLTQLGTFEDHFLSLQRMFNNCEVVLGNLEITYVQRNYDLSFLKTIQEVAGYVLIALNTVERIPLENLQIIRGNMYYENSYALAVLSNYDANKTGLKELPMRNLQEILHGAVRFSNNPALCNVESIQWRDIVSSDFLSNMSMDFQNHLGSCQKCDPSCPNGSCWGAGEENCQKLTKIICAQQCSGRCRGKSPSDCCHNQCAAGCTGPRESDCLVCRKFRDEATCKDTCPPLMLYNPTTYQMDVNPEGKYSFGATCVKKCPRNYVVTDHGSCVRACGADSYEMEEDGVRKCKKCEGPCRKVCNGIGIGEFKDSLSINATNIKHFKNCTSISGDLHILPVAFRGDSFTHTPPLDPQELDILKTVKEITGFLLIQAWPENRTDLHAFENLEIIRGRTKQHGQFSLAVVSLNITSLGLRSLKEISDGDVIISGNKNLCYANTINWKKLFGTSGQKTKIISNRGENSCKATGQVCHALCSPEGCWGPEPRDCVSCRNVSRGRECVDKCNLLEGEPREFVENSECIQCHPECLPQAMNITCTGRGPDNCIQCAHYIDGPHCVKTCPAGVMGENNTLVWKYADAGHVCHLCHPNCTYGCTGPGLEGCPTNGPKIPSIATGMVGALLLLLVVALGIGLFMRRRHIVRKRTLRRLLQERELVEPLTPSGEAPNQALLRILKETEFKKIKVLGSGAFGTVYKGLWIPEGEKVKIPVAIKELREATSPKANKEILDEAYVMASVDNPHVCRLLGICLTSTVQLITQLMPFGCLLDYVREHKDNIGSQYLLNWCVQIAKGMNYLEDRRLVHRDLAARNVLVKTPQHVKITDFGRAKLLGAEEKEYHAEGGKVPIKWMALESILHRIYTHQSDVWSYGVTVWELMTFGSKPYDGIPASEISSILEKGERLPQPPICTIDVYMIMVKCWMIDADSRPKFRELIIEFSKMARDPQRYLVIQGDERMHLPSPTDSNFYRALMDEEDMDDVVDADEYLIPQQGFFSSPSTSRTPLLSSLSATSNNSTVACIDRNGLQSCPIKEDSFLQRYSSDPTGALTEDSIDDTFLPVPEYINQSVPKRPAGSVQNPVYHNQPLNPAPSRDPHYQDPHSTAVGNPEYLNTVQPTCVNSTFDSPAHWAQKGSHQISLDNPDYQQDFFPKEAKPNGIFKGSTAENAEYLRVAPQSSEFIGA
Text: as §1, §2

T1 sequence (P00533 25-1210 T790M/L858R): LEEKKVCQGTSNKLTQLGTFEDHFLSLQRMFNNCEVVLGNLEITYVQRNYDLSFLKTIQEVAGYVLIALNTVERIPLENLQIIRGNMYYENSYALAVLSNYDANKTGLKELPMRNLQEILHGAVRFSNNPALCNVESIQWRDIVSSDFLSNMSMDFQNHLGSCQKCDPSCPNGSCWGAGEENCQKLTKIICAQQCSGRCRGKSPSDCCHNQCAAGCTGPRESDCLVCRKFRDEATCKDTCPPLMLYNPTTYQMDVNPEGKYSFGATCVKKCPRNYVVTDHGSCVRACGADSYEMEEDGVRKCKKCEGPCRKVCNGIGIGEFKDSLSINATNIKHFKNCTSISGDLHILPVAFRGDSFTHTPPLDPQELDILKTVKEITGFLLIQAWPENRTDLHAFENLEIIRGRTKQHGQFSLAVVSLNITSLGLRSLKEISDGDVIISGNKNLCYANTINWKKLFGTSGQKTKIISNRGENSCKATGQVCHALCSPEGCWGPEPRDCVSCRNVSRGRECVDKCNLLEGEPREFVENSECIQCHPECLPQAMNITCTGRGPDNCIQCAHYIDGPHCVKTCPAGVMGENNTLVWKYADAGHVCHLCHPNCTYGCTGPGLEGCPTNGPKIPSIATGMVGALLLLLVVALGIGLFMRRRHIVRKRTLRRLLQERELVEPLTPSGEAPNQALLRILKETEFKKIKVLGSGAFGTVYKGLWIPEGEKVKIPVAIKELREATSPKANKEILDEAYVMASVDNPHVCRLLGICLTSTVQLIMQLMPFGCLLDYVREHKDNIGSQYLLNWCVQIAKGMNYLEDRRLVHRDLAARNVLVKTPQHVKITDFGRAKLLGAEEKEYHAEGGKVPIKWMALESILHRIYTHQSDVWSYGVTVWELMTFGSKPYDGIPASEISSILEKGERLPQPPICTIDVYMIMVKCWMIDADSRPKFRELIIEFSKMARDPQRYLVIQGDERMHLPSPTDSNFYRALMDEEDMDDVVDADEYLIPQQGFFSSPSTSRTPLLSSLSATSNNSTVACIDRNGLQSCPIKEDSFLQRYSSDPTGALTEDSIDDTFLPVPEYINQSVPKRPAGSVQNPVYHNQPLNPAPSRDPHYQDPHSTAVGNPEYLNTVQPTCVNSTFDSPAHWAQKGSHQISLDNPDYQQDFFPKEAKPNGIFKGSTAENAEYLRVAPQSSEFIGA

Structure (SMILES) | DC50 [1] | DC50 [2]
O=C1CCC(Nc2ccc(C3CCN(C(=O)CN4CCN(c5ccc(-c6cc(F)c7c(c6)C(=O)N(C(C(=O)Nc6nccs6)c6ncn8c6CCC8)C7)cc5)CC4)CC3)cc2)C(=O)N1 (stereo not drawn) [Compound 10, 2-(6,7-dihydro-5H-pyrrolo[1,2-c]imidazol-1-yl)-2-(6-(4-(4-(2-(4-(4-((2,6-dioxopiperidin-3-yl)amino)phenyl)piperidin-1-yl)-2-oxoethyl)piperazin-1-yl)phenyl)-4-fluoro-1-oxoisoindolin-2-yl)-N-(thiazol-2-yl)acetamide] | 21 nM | 19 nM
O=C1CCC(Nc2ccc(C3CCN(CC(=O)N4CCN(c5ccc(-c6cc(F)c7c(c6)C(=O)N(C(C(=O)Nc6nccs6)c6ncn8c6CCC8)C7)cc5)CC4)CC3)nc2)C(=O)N1 (stereo not drawn) [Compound 11, 2-(6,7-dihydro-5H-pyrrolo[1,2-c]imidazol-1-yl)-2-[6-[4-[4-[2-[4-[5-[(2,6-dioxo-3-piperidyl)amino]-2-pyridyl]-1-piperidyl]acetyl]piperazin-1-yl]phenyl]-4-fluoro-1-oxo-isoindolin-2-yl]-N-thiazol-2-yl-acetamide] | 20 nM | 21 nM
O=C1CCC(Nc2ccc(C3CCN(CC(=O)N4CCN(c5ccc(-c6cc(F)c7c(c6)C(=O)N(C(C(=O)Nc6nccs6)c6ncn8c6CCC8)C7)cc5)CC4)CC3)c(F)c2)C(=O)N1 (stereo not drawn) [Compound 12, 2-(6,7-dihydro-5H-pyrrolo[1,2-c]imidazol-1-yl)-2-[6-[4-[4-[2-[4-[4-[(2,6-dioxo-3-piperidyl)amino]-2-fluoro-phenyl]-1-piperidyl]acetyl]piperazin-1-yl]phenyl]-4-fluoro-1-oxo-isoindolin-2-yl]-N-thiazol-2-yl-acetamide] | 39 nM | 11 nM
O=C1CC[C@H](Nc2ccc(C3CCN(CC(=O)N4CCC(n5cc(-c6cc(F)c7c(c6)C(=O)N(C(C(=O)Nc6nccs6)c6ncn8c6CCC8)C7)cn5)CC4)CC3)cc2)C(=O)N1 (stereo partly drawn) [Compound 28, 2-(6,7-dihydro-5H-pyrrolo[1,2-c]imidazol-1-yl)-2-[6-[1-[1-[2-[4-[4-[[(3S)-2,6-dioxo-3-piperidyl]amino]phenyl]-1-piperidyl]acetyl]-4-piperidyl]pyrazol-4-yl]-4-fluoro-1-oxo-isoindolin-2-yl]-N-thiazol-2-yl-acetamide] | 16 nM | 17 nM
O=C1CC[C@H](Nc2ccc(C3CCN(CC(=O)N4CCC(n5cc(-c6cc(F)c7c(c6)C(=O)N(C(C(=O)Nc6nccs6)c6ncn8c6CCC8)C7)nn5)CC4)CC3)cc2)C(=O)N1 (stereo partly drawn) [Compound 30, 2-(6,7-dihydro-5H-pyrrolo[1,2-c]imidazol-1-yl)-2-(6-(1-(1-(2-(4-(4-(((S)-2,6-dioxopiperidin-3-yl)amino)phenyl)piperidin-1-yl)acetyl)piperidin-4-yl)-1H-1,2,3-triazol-4-yl)-4-fluoro-1-oxoisoindolin-2-yl)-N-(thiazol-2-yl)acetamide] | 15 nM | 35 nM
O=C1CCC(Nc2ccc(C3CCN(C(=O)C(=O)N4CCC(Oc5ccc(-c6cc(F)c7c(c6)C(=O)N(C(C(=O)Nc6nccs6)c6ncn8c6CCC8)C7)cc5)CC4)CC3)cc2)C(=O)N1 (stereo not drawn) [Compound 40, 2-(6,7-dihydro-5H-pyrrolo[1,2-c]imidazol-1-yl)-2-[6-[4-[[1-[2-[4-[4-[(2,6-dioxo-3-piperidyl)amino]phenyl]-1-piperidyl]-2-oxo-acetyl]-4-piperidyl]oxy]phenyl]-4-fluoro-1-oxo-isoindolin-2-yl]-N-thiazol-2-yl-acetamide] | 21 nM | 14 nM
O=C1CC[C@H](Nc2ccc(C3CCN(CC(=O)N4CC5(CCN(c6ccc(-c7cc(F)c8c(c7)C(=O)N(C(C(=O)Nc7nccs7)c7ncn9c7CCC9)C8)cc6)CC5)C4)CC3)c(F)c2)C(=O)N1 (stereo partly drawn) [Compound 46, 2-(6,7-dihydro-5H-pyrrolo[1,2-c]imidazol-1-yl)-2-(6-(4-(2-(2-(4-(4-(((S)-2,6-dioxopiperidin-3-yl)amino)-2-fluorophenyl)piperidin-1-yl)acetyl)-2,7-diazaspiro[3.5]nonan-7-yl)phenyl)-4-fluoro-1-oxoisoindolin-2-yl)-N-(thiazol-2-yl)acetamide] | 51 nM | 51 nM
O=C1CC[C@H](Nc2ccc(C3CCN(CC(=O)N4CC5(C4)CN(c4ccc(-c6cc(F)c7c(c6)C(=O)N(C(C(=O)Nc6ccccn6)c6ncn8c6CCC8)C7)cc4)C5)CC3)c(F)c2)C(=O)N1 (stereo partly drawn) [Compound 53, 2-(6,7-dihydro-5H-pyrrolo[1,2-c]imidazol-1-yl)-2-[6-[4-[2-[2-[4-[4-[[(3S)-2,6-dioxo-3-piperidyl]amino]-2-fluoro-phenyl]-1-piperidyl]acetyl]-2,6-diazaspiro[3.3]heptan-6-yl]phenyl]-4-fluoro-1-oxo-isoindolin-2-yl]-N-(2-pyridyl)acetamide] | 64 nM | 37 nM
O=C1CCC(Nc2ccc(C3CCN(CC(=O)N4CCN(Cc5ccc(-c6cc(F)c7c(c6)C(=O)N(C(C(=O)Nc6nccs6)c6ncn8c6CCC8)C7)cc5)CC4)CC3)cc2)C(=O)N1 (stereo not drawn) [Compound 56, 2-(6,7-dihydro-5H-pyrrolo[1,2-c]imidazol-1-yl)-2-[6-[4-[[4-[2-[4-[4-[(2,6-dioxo-3-piperidyl)amino]phenyl]-1-piperidyl]acetyl]piperazin-1-yl]methyl]phenyl]-4-fluoro-1-oxo-isoindolin-2-yl]-N-thiazol-2-yl-acetamide] | 20 nM | 14 nM
O=C1CC[C@H](Nc2ccc(C3CCN(CC(=O)N4CCC(Cc5ccc(-c6cc(F)c7c(c6)C(=O)N(C(C(=O)Nc6nccs6)c6ncn8c6CCC8)C7)cc5)CC4)CC3)c(F)c2)C(=O)N1 (stereo partly drawn) [Compound 60, 2-(6,7-dihydro-5H-pyrrolo[1,2-c]imidazol-1-yl)-2-[6-[4-[[1-[2-[4-[4-[[(3S)-2,6-dioxo-3-piperidyl]amino]-2-fluoro-phenyl]-1-piperidyl]acetyl]-4-piperidyl]methyl]phenyl]-4-fluoro-1-oxo-isoindolin-2-yl]-N-thiazol-2-yl-acetamide] | 52 nM | 28 nM

The remaining compounds from weak to strong by DC50 [1], led by results:

DC50 [1] | DC50 [2] | Structure (SMILES)
36 nM | 20 nM | O=C1CC[C@H](Nc2ccc(C3CCN(CC(=O)N4CCN(c5ccc(-c6cc(F)c7c(c6)C(=O)N(C(C(=O)Nc6nccs6)c6ncn8c6CCC8)C7)cn5)CC4)CC3)c(F)c2)C(=O)N1 (stereo partly drawn) [Compound 27, 2-(6,7-dihydro-5H-pyrrolo[1,2-c]imidazol-1-yl)-2-[6-[6-[4-[2-[4-[4-[[(3S)-2,6-dioxo-3-piperidyl]amino]-2-fluoro-phenyl]-1-piperidyl]acetyl]piperazin-1-yl]-3-pyridyl]-4-fluoro-1-oxo-isoindolin-2-yl]-N-thiazol-2-yl-acetamide]
31 nM | 15 nM | O=C1CC[C@H](Nc2ccc(C3CCN(CC(=O)N4CCC(c5ccc(-c6cc(F)c7c(c6)C(=O)N(C(C(=O)Nc6nccs6)c6ncn8c6CCC8)C7)cc5)CC4)CC3)cc2)C(=O)N1 (stereo partly drawn) [Compound 22, 2-(6,7-dihydro-5H-pyrrolo[1,2-c]imidazol-1-yl)-2-(6-(4-(1-(2-(4-(4-(((S)-2,6-dioxopiperidin-3-yl)amino)phenyl)piperidin-1-yl)acetyl)piperidin-4-yl)phenyl)-4-fluoro-1-oxoisoindolin-2-yl)-N-(thiazol-2-yl)acetamide]
24 nM | 20 nM | O=C1CC[C@H](Nc2ccc(C3CCN(CC(=O)N4CCC(c5cnn(-c6cc(F)c7c(c6)C(=O)N(C(C(=O)Nc6nccs6)c6ncn8c6CCC8)C7)c5)CC4)CC3)cc2)C(=O)N1 (stereo partly drawn) [Compound 29, 2-(6,7-dihydro-5H-pyrrolo[1,2-c]imidazol-1-yl)-2-[6-[4-[1-[2-[4-[4-[[(3S)-2,6-dioxo-3-piperidyl]amino]phenyl]-1-piperidyl]acetyl]-4-piperidyl]pyrazol-1-yl]-4-fluoro-1-oxo-isoindolin-2-yl]-N-thiazol-2-yl-acetamide]
18 nM | 10 nM | Cn1nc(N2CCC(=O)NC2=O)c2ccc(C3CCN(CC(=O)N4CC5(C4)CN(c4ccc(-c6cc(F)c7c(c6)C(=O)N(C(C(=O)Nc6nccs6)c6ncn8c6CCC8)C7)cc4)C5)CC3)cc21 (stereo not drawn) [Compound 49, 2-(6,7-dihydro-5H-pyrrolo[1,2-c]imidazol-1-yl)-2-[6-[4-[2-[2-[4-[3-(2,4-dioxohexahydropyrimidin-1-yl)-1-methyl-indazol-6-yl]-1-piperidyl]acetyl]-2,6-diazaspiro[3.3]heptan-6-yl]phenyl]-4-fluoro-1-oxo-isoindolin-2-yl]-N-thiazol-2-yl-acetamide]
14 nM | 16 nM | Cn1nc(N2CCC(=O)NC2=O)c2ccc(C3CCN(CC(=O)N4CCN(c5ccc(-c6cc(F)c7c(c6)C(=O)N(C(C(=O)Nc6nccs6)c6ncn8c6C[C@@H](F)C8)C7)cc5)CC4)CC3)cc21 (stereo partly drawn) [Compound 45, 2-[6-[4-[4-[2-[4-[3-(2,4-dioxohexahydropyrimidin-1-yl)-1-methyl-indazol-6-yl]-1-piperidyl]acetyl]piperazin-1-yl]phenyl]-4-fluoro-1-oxo-isoindolin-2-yl]-2-[(6R)-6-fluoro-6,7-dihydro-5H-pyrrolo[1,2-c]imidazol-1-yl]-N-thiazol-2-yl-acetamide]
